# Legend:
# Type in all cases: biochemical
# PKC theta kinase = PKC theta kinase (Homo sapiens, UniProt Q04759); experiment: PKC Theta I (coupled enzyme assay, absorbance at 340 nm); conditions: 240 μM ATP, 18 nM PKC theta, absorbance read out
# Description: (§1) An assay buffer solution was prepared which consisted of 100 mM HEPES (pH 7.5), 10 mM MgCl2, 25 mM NaCl, 0.1 mM EDTA and 0.01% Brij. […] To 60 μL of this enzyme buffer, in a 384 well plate, was added 2 μL of VRT stock solution in DMSO. The mixture was allowed to equilibrate for 10 mins at 30° C. […] Ki values were calculated from initial rate data by non-linear regression using the Prism software package (Prism 4.0a, Graphpad Software, San Diego, Calif.).
# PKC alpha kinase = PKC alpha kinase (Homo sapiens, UniProt P17252); experiment: PKC Alpha (coupled enzyme assay); conditions: 130 μM ATP, 4.5 nM PKC alpha
# Description: as §1, with “mM EDTA, 100 μM CaCl2” for “mM EDTA”, “To 16” for “To 60”, “added 1” for “added 2”
# PKC delta kinase = PKC delta kinase (Homo sapiens, UniProt Q05655); experiment: PKC Delta (coupled enzyme assay); conditions: 150 μM ATP, 46 nM PKC delta; read-out: Ki PKC delta
# Description: as §1, with “To 16” for “To 60”, “added 1” for “added 2”
# Sequence of PKC theta kinase (Q04759 whole entry): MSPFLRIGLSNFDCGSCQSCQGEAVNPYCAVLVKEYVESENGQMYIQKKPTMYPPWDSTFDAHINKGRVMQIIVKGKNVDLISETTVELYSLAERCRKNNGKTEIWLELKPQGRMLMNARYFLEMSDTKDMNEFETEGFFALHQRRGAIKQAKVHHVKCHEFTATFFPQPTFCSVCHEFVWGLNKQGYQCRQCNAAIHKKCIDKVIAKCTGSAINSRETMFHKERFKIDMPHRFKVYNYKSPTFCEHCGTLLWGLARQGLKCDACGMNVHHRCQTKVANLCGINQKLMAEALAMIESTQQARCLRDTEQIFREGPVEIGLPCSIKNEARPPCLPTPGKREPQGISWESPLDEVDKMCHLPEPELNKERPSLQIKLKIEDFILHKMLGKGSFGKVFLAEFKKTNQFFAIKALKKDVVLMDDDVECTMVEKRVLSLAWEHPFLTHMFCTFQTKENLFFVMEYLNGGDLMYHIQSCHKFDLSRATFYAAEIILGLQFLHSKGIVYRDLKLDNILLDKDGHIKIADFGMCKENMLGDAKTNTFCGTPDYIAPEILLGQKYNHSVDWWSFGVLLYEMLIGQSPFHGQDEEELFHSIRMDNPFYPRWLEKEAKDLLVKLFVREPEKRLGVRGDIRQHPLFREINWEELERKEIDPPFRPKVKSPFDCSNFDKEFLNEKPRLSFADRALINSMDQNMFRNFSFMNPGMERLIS
# Sequence of PKC delta kinase (Q05655 whole entry): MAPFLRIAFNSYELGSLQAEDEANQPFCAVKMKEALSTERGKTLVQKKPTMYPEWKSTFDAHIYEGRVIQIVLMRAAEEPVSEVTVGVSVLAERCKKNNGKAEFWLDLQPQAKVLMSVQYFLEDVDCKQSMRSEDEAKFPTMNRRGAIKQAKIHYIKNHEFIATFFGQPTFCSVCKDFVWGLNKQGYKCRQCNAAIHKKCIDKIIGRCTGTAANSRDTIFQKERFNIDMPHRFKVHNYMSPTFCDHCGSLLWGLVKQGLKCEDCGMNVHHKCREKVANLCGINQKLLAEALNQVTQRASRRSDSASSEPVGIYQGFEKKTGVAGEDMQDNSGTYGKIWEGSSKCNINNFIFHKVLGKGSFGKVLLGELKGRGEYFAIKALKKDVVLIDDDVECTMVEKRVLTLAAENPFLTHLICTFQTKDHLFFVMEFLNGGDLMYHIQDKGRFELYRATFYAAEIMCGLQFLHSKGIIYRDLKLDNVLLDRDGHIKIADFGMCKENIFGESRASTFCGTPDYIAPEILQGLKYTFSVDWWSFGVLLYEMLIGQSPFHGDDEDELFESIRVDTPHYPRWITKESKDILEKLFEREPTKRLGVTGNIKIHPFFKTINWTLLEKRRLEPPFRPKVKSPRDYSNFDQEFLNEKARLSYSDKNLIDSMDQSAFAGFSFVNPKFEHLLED
Ki (PKC theta kinase) [nM],Ki (PKC alpha kinase) [nM],Ki (PKC delta kinase) [nM],SMILES
500 to 2800,,,N#CCC(=O)N1CCCN(c2cccc(C(=O)c3cccnc3N)n2)CC1 [compound 22]
500 to 2800,> 2800,> 2800,CC(Nc1ccc(C(F)(F)F)c(C(=O)c2cccnc2N)n1)[C@@H](O)c1ccccc1 (stereo partly drawn) [compound 430]
500 to 2800,> 2800,> 2800,CC(C)C1OC(=O)N2CCN(c3ccc(C(F)(F)F)c(C(=O)c4cccnc4N)n3)CC12 (stereo not drawn) [compound 453]
500 to 2800,> 2800,> 2800,CC(C)C[C@H]1CN(c2cc(C(=O)c3cccnc3N)c(-c3ccco3)cn2)CCN1 [compound 428]
500 to 2800,> 2800,> 2800,CC[C@@H]1CN(c2ccc(C(F)(F)F)c(C(=O)c3cccnc3N)n2)C[C@H](C(C)C)N1 [compound 472]
500 to 2800,,,Cc1ccc(CC(=O)N2CCCN(c3cccc(C(=O)c4cc(Br)cnc4N)n3)CC2)cc1 [compound 74]
500 to 2800,> 2800,500 to 2800,CC[C@H]1CN(c2ccc(C(F)(F)F)c(C(=O)c3cccnc3N)n2)C[C@H](CC(C)C)N1 [compound 489]
500 to 2800,,,CN1CCC(N2CCN(c3cccc(C(=O)c4cc(Br)cnc4N)n3)CC2)CC1 [compound 101]
500 to 2800,> 2800,> 2800,Nc1ncccc1C(=O)c1nc(NCCO)ccc1C(F)(F)F [compound 423]
500 to 2800,> 2800,500 to 2800,Nc1ncccc1C(=O)c1nc(OCC2(N)CCCC2)ccc1C(F)(F)F [compound 438]
500 to 2800,> 2800,> 2800,CCC[C@H]1CN(c2ccc(C(F)(F)F)c(C(=O)c3cccnc3N)n2)C[C@@H](c2ccccc2)N1 [compound 481]
500 to 2800,,,Nc1ncccc1C(=O)c1cccc(N2CCCN(C(=O)Cc3cccc(O)c3)CC2)n1 [compound 77]
500 to 2800,> 2800,> 2800,CC(C)[C@H]1CN(c2ccc(C(F)(F)F)c(C(=O)c3cccnc3N)n2)C[C@@H](c2ccccc2)N1 [compound 449]
500 to 2800,,,CN(C)C1CCN(c2cccc(C(=O)c3cccnc3N)n2)CC1 [compound 137]
500 to 2800,,,Nc1ncc(Br)cc1C(=O)c1cccc(N2CCCN(CCc3ccccc3)CC2)n1 [compound 114]
500 to 2800,,,CC(C)(C)CC(=O)N1CCCN(c2cccc(C(=O)c3cccnc3N)n2)CC1 [compound 26]
500 to 2800,,,Cc1ccsc1CN1CCCN(c2cccc(C(=O)c3cc(Br)cnc3N)n2)CC1 [compound 139]
500 to 2800,,,Cc1ccoc1C(=O)N1CCCN(c2cccc(C(=O)c3cccnc3N)n2)CC1 [compound 91]

Ki (PKC theta kinase) [nM],Ki (PKC alpha kinase) [nM],Ki (PKC delta kinase) [nM],SMILES
500 to 2800,,,Nc1ncc(Br)cc1C(=O)c1cccc(N2CCCN(Cc3ccccc3)CC2)n1 [compound 99]
500 to 2800,,,CC(C)(C)OC(=O)N1CCCN(c2nccc(C(=O)c3cccnc3N)n2)CC1 [compound 110]
,500 to 2800,500 to 2800,Cc1ccc(N2CCCNCC2)nc1C(=O)c1cccnc1N [compound 209]
,> 2800,500 to 2800,CC(C)(C)[C@H](N)COc1ccc(C(F)(F)F)c(C(=O)c2cccnc2N)n1 [compound 422]
500 to 2800,,> 2800,Nc1ncccc1C(=O)c1cccc(N2CCCN(C(=O)c3cccs3)CC2)n1 [compound 90]
,500 to 2800,500 to 2800,Nc1ncccc1C(=O)c1nc(N2CCN[C@H](c3ccccc3)C2)ccc1C(F)(F)F [compound 447]
,500 to 2800,500 to 2800,C=Cc1ccc(N2CCN[C@H](c3ccccc3)C2)nc1C(=O)c1cccnc1N [compound 445]
500 to 2800,,,Nc1ncccc1C(=O)c1cccc(N2CCCN(C(=O)Cc3ccccc3Cl)CC2)n1 [compound 29]
,500 to 2800,50 to 500,Cc1ccc(-c2ccc(N3CCNC(c4ccccc4)C3)nc2C(=O)c2cccnc2N)o1 (stereo not drawn) [compound 469]
500 to 2800,,,CC(C)(C)OC(=O)NC1CCN(c2cccc(C(=O)c3cc(Br)cnc3N)n2)CC1 [compound 135]
500 to 2800,,,CC(C)(C)N1CCN(c2cccc(C(=O)c3cccnc3N)n2)CC1 [compound 88]
,500 to 2800,50 to 500,CC(N)(CNc1ccc(C(F)(F)F)c(C(=O)c2cccnc2N)n1)Cc1ccccc1 (stereo not drawn) [compound 452]
500 to 2800,,,Nc1ncc(Br)cc1C(=O)c1cccc(N2CCCN(C(=O)Cc3ccccc3)CC2)n1 [compound 72]
,> 2800,50 to 500,Cc1ccc(-c2ccc(N3CCNCC3)nc2C(=O)c2cccnc2N)o1 [compound 470]
500 to 2800,,,CC(C)(C)C(=O)N1CCCN(c2cccc(C(=O)c3cc(Br)cnc3N)n2)CC1 [compound 73]
500 to 2800,> 2800,> 2800,CC(C)C[C@H]1CN(c2ccc(C#CC(C)(C)O)c(C(=O)c3cccnc3N)n2)CCN1 [compound 467]
,500 to 2800,> 2800,Cc1ccccc1C(=O)N1CCCN(c2cccc(C(=O)c3cccnc3N)n2)CC1 [compound 89]
500 to 2800,> 2800,500 to 2800,CCC[C@H]1CN(c2ccc(C(F)(F)F)c(C(=O)c3cccnc3N)n2)C[C@H](CC(C)C)N1 [compound 493]

SMILES,Ki (PKC theta kinase) [nM],Ki (PKC alpha kinase) [nM],Ki (PKC delta kinase) [nM]
Nc1ncc(Cl)cc1C(=O)c1nc(N2CCNCC2)ccc1C(F)(F)F [compound 495],,< 50,50 to 500

# Reference: patent US8741931B2, “Kinase inhibitors” (priority 2007, dated 2014)
